Assay results as given in patent publication US11767314B2, “Bioenergetic nicotinic acid glycerol esters, compositions and methods of using same” (Conopco, Inc., priority 2018, dated 2023).
Entries after “also recorded” stand apart in the source; their conditions may differ.

System: Human dermal fibroblasts F5140616B1
Experiment: Effect of NAEs on AMP/ATP Ratio in Fibroblast Cells (metabolites by LC/MS)
Assay type: cell-based
Set-up: AMP/ATP Ratio: scale not given here
Conditions: for AMP/ATP Ratio / Increase Over Vehicle (AMP/ATP ratio): 500 uM, fibroblasts treated every other day for 6 days; for AMP/ATP Ratio: vehicle (ethanol) 367; for Increase Over Vehicle (AMP/ATP ratio): vs ethanol vehicle; for AMP/ATP ratio, result in words: fibroblast cells, 500 uM where stated
Method: The experiments in this Example 2 were conducted in the following manner.
Method for Treatment of Fibroblasts with Bioenergetic Compounds
Human dermal fibroblasts F5140616B1 (MatTek Corporation, Ashland, Mass.) were derived from a donor and cultured in DMEM media (ThermoFisher Cat #31053-036) supplemented with FBS (Hyclone/Fisher Scientific Cat #SH30007103), glutamine (ThermoFisher Cat #35050-61) and sodium pyruvate (ThermoFisher Cat #11360-070). At the third passage, the cells were detached from the culture vessels using Trypsin/EDTA (T/E) solution (0.25 mg/mL) (Lonza Cat #CC-5012) and used for experimentation.
Cells were treated with the compounds every other day for a total of 6 days. Treatment involved removal of the spent media+compounds and replenishment with fresh media+compounds. At the end of the experiment, the cells were detached from the culture vessels using the standard procedure outlined above. The cells were centrifuged and then washed 1× with Dulbecco's PBS with no calcium or magnesium (ThermoFisher Cat #14190144) and then accurate cell counts were taken using a Scepter cell counter (EMD Millipore). The cells were then split equally into 2 Eppendorf tubes, and centrifuged. Excess PBS was then removed from the resulting cell pellets. The pellets were then immediately frozen on dry ice and sent to an external laboratory for analysis of metabolites by LC/MS.

SMILES | AMP/ATP Ratio | Increase Over Vehicle (AMP/ATP ratio) | AMP/ATP ratio, result in words
CC(=O)O[C@@H]1[C@@H](CO)OC([n+]2cccc(C(N)=O)c2)[C@@H]1OC(C)=O.O=S(=O)([O-])C(F)(F)F (stereo partly drawn) [JR1, 3-carbamoyl-1-((3R,4R,5R)-3,4-diacetoxy-5-(hydroxymethyl)tetrahydrofuran-2-yl)pyridin-1-ium trifluoromethanesulfonate] | 756 | 106% | 
CCCC(=O)O[C@@H]1[C@@H](CO)OC([n+]2cccc(C(N)=O)c2)[C@@H]1OC(=O)CCC.O=S(=O)([O-])C(F)(F)F (stereo partly drawn) [JR2, 1-((3R,4R,5R)-3,4-bis(butyryloxy)-5-(hydroxymethyl)tetrahydrofuran-2-yl)-3-carbamoylpyridin-1-ium trifluoromethanesulfonate] | 919 | 150% | 
CC(=O)O[C@@H]1[C@@H](CO)OC(N2C=CCC(C(N)=O)=C2)[C@@H]1OC(C)=O (stereo partly drawn) [JR3, (3R,4R,5R)-2-(3-carbamoylpyridin-1(4H)-yl)-5-(hydroxymethyl) tetrahydrofuran-3,4-diyl diacetate] | 1231 | 235% | 
NC(=O)c1cccnc1 [Nicotinamide, reference compound] | 529 | 44% | somewhat elevated levels of AMP/ATP ratio over control vehicle
CC1(C)OCC(COC(=O)c2cccnc2)O1 (stereo not shown) [VC1, (2,2-dimethyl-1,3-dioxolan-4-yl)methyl nicotinate] | 1010 | 175% | increased AMP/ATP ratio in testing; also recorded: notably increase the AMP/ATP ratio; also recorded: significantly elevated levels of AMP/ATP ratio over both, control vehicle and nicotinamide; also recorded: increase in the levels of AMP/ATP ratio; also recorded: demonstrably increased AMP/ATP ratio
O=C(OCC(O)CO)c1cccnc1 (stereo not shown) [VC2, 2,3-dihydroxypropyl nicotinate] |  |  | increased AMP/ATP ratio in testing; also recorded: notably increase the AMP/ATP ratio; also recorded: increase in the levels of AMP/ATP ratio; also recorded: demonstrably increased AMP/ATP ratio
CC1(C)OCC(OC(=O)c2cccnc2)CO1 [VC4, 2,2-dimethyl-1,3-dioxan-5-yl nicotinate] | 941 | 156% | increased AMP/ATP ratio in testing; also recorded: notably increase the AMP/ATP ratio; also recorded: significantly elevated levels of AMP/ATP ratio over both, control vehicle and nicotinamide; also recorded: demonstrably increased AMP/ATP ratio
